Measured values as given in ChEMBL document CHEMBL1123401, “Mapping the turkey erythrocyte beta receptor: a distance geometry approach” (J Med Chem, 1986).

System: Erythrocyte beta receptor
Test: Free energy of binding to turkey erythrocyte beta receptor
Set-up: unit not given here
Conditions: Meleagris gallopavo

CC(Cc1ccc2c(c1)OCO2)NC[C@H](O)c1ccc(O)c(O)c1 (some centres not stated)
Delta G: -9.88

CC(C)NCC(O)c1ccc(O)c(O)c1 (configuration not stated)
Delta G: -9.18

CC(C)NC[C@H](O)c1ccc(O)c(NS(C)(=O)=O)c1
Delta G: -7.36

C[C@H](N)[C@H](O)c1ccc(O)c(O)c1
Delta G: -9.64

CC(C)NC[C@H](O)COc1cccc2c(O)cccc12
Delta G: -11.2

CC(C)NC[C@H](O)c1ccc(NS(C)(=O)=O)cc1
Delta G: -8.46

C[C@H](NCCc1ccccc1)[C@H](O)c1ccc(O)cc1
Delta G: -9.01

CC(C)NC[C@H](O)COc1ccc(O)c(O)c1
Delta G: -9.13

CC(C)NC[C@H](O)c1cc(O)cc(O)c1
Delta G: -7.13

CC(C)NC[C@H](O)COc1ccccc1I
Delta G: -12.8

CC(=O)Nc1ccc(OC[C@@H](O)CNC(C)C)cc1
Delta G: -7.54

NC[C@H](O)c1ccc(O)c(O)c1
Delta G: -7.26

NC[C@H](O)c1cccc(O)c1
Delta G: -7.23

CC(C)(Cc1ccc(O)cc1)NC[C@H](O)c1ccc(O)c(O)c1
Delta G: -10

NC[C@H](O)c1ccc(O)cc1
Delta G: -5.94

CC(C)NC[C@H](O)c1cccc(O)c1
Delta G: -7.99

CC(C)(C)NC[C@H](O)c1ccc(O)c(CO)c1
Delta G: -8.23

CNC[C@H](O)c1cccc(O)c1
Delta G: -6.72

CC(C)(Cc1ccccc1)NC[C@H](O)c1ccc(O)c(NS(C)(=O)=O)c1
Delta G: -9.64

CC(C)NC[C@H](O)c1ccc(O)cc1
Delta G: -7.54

CC(C)(C)NC[C@H](O)c1cc(O)cc(CO)c1
Delta G: -6.58

C[C@H](COc1ccccc1)NC[C@H](O)c1ccc(O)cc1
Delta G: -7.95

CC(CCc1ccccc1)N[C@@H](C)[C@H](O)c1ccc(O)cc1 (some centres not stated)
Delta G: -9.55

CN[C@@H](C)[C@H](O)c1ccc(O)cc1
Delta G: -6.47

CC(C)NC[C@H](O)c1ccc(O)c2ncccc12
Delta G: -10.4

COc1ccc(CC(C)NC[C@H](O)c2ccc(O)c(CO)c2)cc1 (some centres not stated)
Delta G: -7.65

COc1ccc(CCNC[C@H](O)COC2=CC=CC3C(=O)C=CC=C23)cc1OC (some centres not stated)
Delta G: -11.3

CC(C)NC[C@H](O)c1ccc(NS(C)(=O)=O)c(O)c1
Delta G: -6.29

CNC[C@H](O)c1ccc(O)c(O)c1
Delta G: -7.86

C=CCc1cccc(OC[C@@H](O)CNC(C)C)c1
Delta G: -8.82

CC(C)NC[C@H](O)COc1ccc(O)cc1
Delta G: -8.91

CC(C)(C)NC[C@H](O)COC1=CC=CC2C(=O)C=CC=C12 (some centres not stated)
Delta G: -11.9

C=CCc1ccccc1OC[C@@H](O)CNC(C)C
Delta G: -12.1

CC(Cc1ccc(O)cc1)NC[C@H](O)c1cc(O)cc(O)c1 (some centres not stated)
Delta G: -8.62

CC(C)(Cc1ccc(O)cc1)NC[C@H](O)c1cc(O)cc(CO)c1
Delta G: -7.61

CC(Cc1ccc(O)cc1)NC[C@H](O)c1ccc(O)c(O)c1 (some centres not stated)
Delta G: -10.4

CC(C)NC[C@H](O)c1ccc2ccccc2c1
Delta G: -9.06

CS(=O)(=O)Nc1cc([C@@H](O)CNC2CC2)ccc1O
Delta G: -8.19

CC(C)(Cc1ccc(O)cc1)NC[C@H](O)COc1cccc2[nH]ccc12
Delta G: -14.7

CC(C)NC[C@@H](O)COc1cccc2ccccc12
Delta G: -11.7

Oc1ccc(CCNC[C@H](O)COc2cccc3ccccc23)cc1
Delta G: -10.9

CNC[C@H](O)c1ccccc1
Delta G: -6.79

CC(C)(C)NC[C@H](O)COc1cccc2[nH]ccc12
Delta G: -13.5

CC(C)(Cc1ccc(O)cc1)NC[C@H](O)COc1cccc2ccccc12
Delta G: -11.2

CC(C)NC[C@H](O)c1ccc(O)c(CS(C)(=O)=O)c1
Delta G: -7.85

CCNC[C@H](O)c1cccc(O)c1
Delta G: -6.75

CNC[C@H](O)c1ccc(O)cc1
Delta G: -6.01

C[C@H](N)[C@H](O)c1ccc(O)cc1
Delta G: -6.27

O[C@@H](CNc1ccccc1)c1ccccc1
Delta G: -5.76

NC[C@H](O)COc1cccc2ccccc12
Delta G: -10.9

CCNC[C@H](O)c1ccc(O)c(O)c1
Delta G: -7.59

C=CCOc1ccccc1OC[C@@H](O)CNC(C)C
Delta G: -11.6

CC[C@H](NC(C)C)[C@H](O)c1ccc(NS(C)(=O)=O)cc1
Delta G: -7.41

CC(C)NC[C@H](O)COc1cccc2[nH]ccc12
Delta G: -13

CC(C)NC[C@H](O)c1ccc(Cl)c(Cl)c1
Delta G: -8.83

CC[C@H](NC(C)C)[C@H](O)c1ccc(O)c(O)c1
Delta G: -8.02

CC(C)NC[C@H](O)COc1ccc(N)cc1
Delta G: -8.96
